Results taken from patent US6274715A, “Tricyclic erythromycin derivatives” (priority 1997, dated 2001).
Values after ≈ are worked out from the molar mass of the structure shown.

Legend:
Assay type in all cases: cell-based
[1] = system: STREPTOCOCCUS PYOGENES EES61; assay: In vitro antibacterial activity, MIC, BHI agar dilution; conditions: S. pyogenes EES61, unit assumed
[2] = system: STREPTOCOCCUS PYOGENES 930; assay: as above; conditions: S. pyogenes 930, unit assumed
[3] = system: STAPHYLOCOCCUS AUREUS 1775; assay: as above; conditions: S. aureus 1775, unit assumed
[4] = system: STAPHYLOCOCCUS EPIDERMIDIS 3519; conditions: S. epidermidis 3519; BHI agar; unit assumed
[5] = system: STAPHYLOCOCCUS AUREUS A5177; assay: In vitro antibacterial activity, MIC, BHI agar dilution; conditions: S. aureus A5177, unit assumed
[6] = system: STAPHYLOCOCCUS AUREUS CMX 642A; assay: as above; conditions: S. aureus CMX 642A, unit assumed
ESCHERICHIA COLI H560 = assay: as above; conditions: E. coli H560, unit assumed
[7] = system: STREPTOCOCCUS BOVIS A-5169; assay: as above; conditions: S. bovis A-5169, unit assumed
[8] = system: KLEBSIELLA PNEUMONIAE ATCC 8045; assay: as above; conditions: K. pneumoniae ATCC 8045, unit assumed
[9] = system: PSEUDOMONAS AERUGINOSA K799/WT; assay: as above; conditions: P. aeruginosa K799/WT, unit assumed
[10] = system: PSEUDOMONAS AERUGINOSA BMH10; assay: as above; conditions: P. aeruginosa BMH10, unit assumed
ESCHERICHIA COLI DC-2 = assay: as above; conditions: E. coli DC-2, unit assumed
[11] = system: STAPHYLOCOCCUS AUREUS ATCC 6538P; assay: as above; conditions: S. aureus ATCC 6538P, 35-37° C., 20 to 24 hours, unit assumed
[12] = system: PSEUDOMONAS AERUGINOSA 5007; assay: as above; conditions: P. aeruginosa 5007, unit assumed
[13] = system: STREPTOCOCCUS PYOGENES PIU 2548; assay: as above; conditions: S. pyogenes PIU 2548, unit assumed
ESCHERICHIA COLI KNK 437 = conditions: E. coli KNK 437; BHI agar; unit assumed
[14] = system: MYCOBACTERIUM SMEGMATIS ATCC 114; assay: In vitro antibacterial activity, MIC, BHI agar dilution; conditions: M. smegmatis ATCC 114, unit assumed
[15] = system: STAPHYLOCOCCUS AUREUS CMX 553; assay: as above; conditions: S. aureus CMX 553, unit assumed
ESCHERICHIA COLI SS = assay: as above; conditions: E. coli SS, unit assumed
[16] = system: STAPHYLOCOCCUS AUREUS A-5278; assay: as above; conditions: S. aureus A-5278, unit assumed
[17] = system: PSEUDOMONAS AERUGINOSA DPHD-2862; assay: as above; conditions: P. aeruginosa DPHD-2862, unit assumed
PSEUDOMONAS CEPACIA 296I = assay: as above; conditions: P. cepacia 296I, unit assumed
[18] = system: STAPHYLOCOCCUS AUREUS NCTC10649M; assay: as above; conditions: S. aureus NCTC10649M, unit assumed
ESCHERICHIA COLI JUHL = conditions: E. coli JUHL; BHI agar; unit assumed
STR[…] 508 = assay: In vitro antibacterial activity, MIC, BHI agar dilution; conditions: S. agalactiae CMX 508, unit assumed
Procedure, shortened: (§1)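 MIC was read visually as the lowest drug level with no growth, a slight haze or sparsely isolated colonies relative to a compound-free growth control. Organisms were spotted at 1:100 dilution (1:10 for slow-growing strains) onto Brain Heart Infusion agar containing serial compound dilutions and incubated 20 to 24 hours at 35-37° C.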

M[…] ATCC 4698 = assay: as above; conditions: M. luteus ATCC 4698, unit assumed
Procedure, shortened: as §1

M[…] ATCC 9341 = assay: as above; conditions: M. luteus ATCC 9341, unit assumed
Procedure, shortened: as §1

EN[…] ATCC 8043 = assay: as above; conditions: E. faecium ATCC 8043, unit assumed
Procedure, shortened: as §1

[19] = system: ENTEROBACTER AEROGENES ATCC 13048; assay: as above; conditions: E. aerogenes ATCC 13048, unit assumed
[20] = system: PSEUDOMONAS AERUGINOSA K799/61; assay: as above; conditions: P. aeruginosa K799/61, unit assumed
CANDIDA ALBICANS CCH 442 = assay: as above; conditions: C. albicans CCH 442, unit assumed
[21] = system: PSEUDOMONAS AERUGINOSA DPHD-5263; assay: as above; conditions: P. aeruginosa DPHD-5263, unit assumed
[22] = system: PROVIDENCIA STUARTII CMX 640; conditions: P. stuartii CMX 640; BHI agar; unit assumed

`CC[C@H]1OC(=O)[C@H](C)C(=O)[C@H](C)[C@@H](O[C@@H]2O[C@H](C)C[C@H](N(C)C)[C@H]2O)[C@](C)(OC)C[C@@H](C)C2=NC3CCCC3N3C(=O)O[C@@]1(C)[C@H]3[C@H]2C` (stereo partly drawn) [Example 107] was tested, and the MIC [1] was 0.02 µg/mL (≈ 0.0295 µM), the MIC [2] was greater than 100 µg/mL and the MIC [3] was greater than 100 µg/mL. For the same molecule, the MIC [4] was 0.78 µg/mL (≈ 1.15 µM), the MIC [5] was 0.78 µg/mL (≈ 1.15 µM) and the MIC [6] was 0.78 µg/mL (≈ 1.15 µM). For the same molecule, the MIC (ESCHERICHIA COLI H560) was 50 µg/mL (≈ 73.8 µM), the MIC [7] was 0.01 µg/mL (≈ 0.0148 µM) and the MIC [8] was greater than 100 µg/mL. The MIC [9] was greater than 100 µg/mL, the MIC [10] was greater than 100 µg/mL and the MIC (ESCHERICHIA COLI DC-2) was greater than 100 µg/mL. The MIC [11] was 0.78 µg/mL (≈ 1.15 µM), the MIC [12] was greater than 100 µg/mL and the MIC [13] was 0.39 µg/mL (≈ 0.575 µM). The MIC (ESCHERICHIA COLI KNK 437) was greater than 100 µg/mL, the MIC [14] was 1.56 µg/mL (≈ 2.3 µM) and the MIC [15] was 0.78 µg/mL (≈ 1.15 µM). It also gave an MIC (ESCHERICHIA COLI SS) of 0.39 µg/mL (≈ 0.575 µM), an MIC [16] greater than 100 µg/mL and an MIC [17] greater than 100 µg/mL. It also gave an MIC (PSEUDOMONAS CEPACIA 296I) greater than 100 µg/mL, an MIC [18] of 0.78 µg/mL (≈ 1.15 µM) and an MIC (ESCHERICHIA COLI JUHL) greater than 100 µg/mL. The MIC (STR[…] 508) was 0.02 µg/mL (≈ 0.0295 µM), the MIC (M[…] ATCC 4698) was 0.39 µg/mL (≈ 0.575 µM) and the MIC (M[…] ATCC 9341) was 0.05 µg/mL (≈ 0.0738 µM). The MIC (EN[…] ATCC 8043) was 0.1 µg/mL (≈ 0.148 µM), the MIC [19] was greater than 100 µg/mL and the MIC [20] was 6.2 µg/mL (≈ 9.15 µM). The MIC (CANDIDA ALBICANS CCH 442) was greater than 100 µg/mL, the MIC [21] was greater than 100 µg/mL and the MIC [22] was greater than 100 µg/mL.
Molecule `CC[C@H]1OC(=O)[C@H](C)C(=O)[C@H](C)[C@@H](O[C@@H]2O[C@H](C)C[C@H](N(C)C)[C@H]2O)[C@](C)(OC)C[C@@H](C)C2=NC3CNCC3N3C(=O)O[C@@]1(C)[C@H]3[C@H]2C` (stereo partly drawn) [Example 109] has an MIC [1] of 0.05 µg/mL (≈ 0.0737 µM), an MIC [2] greater than 100 µg/mL and an MIC [3] greater than 100 µg/mL. It also gave an MIC [4] of 0.39 µg/mL (≈ 0.574 µM), an MIC [5] of 0.39 µg/mL (≈ 0.574 µM) and an MIC [6] of 0.39 µg/mL (≈ 0.574 µM). The MIC (ESCHERICHIA COLI H560) was 6.2 µg/mL (≈ 9.13 µM), the MIC [7] was 0.05 µg/mL (≈ 0.0737 µM) and the MIC [8] was 25 µg/mL (≈ 36.8 µM). It also gave an MIC [9] greater than 100 µg/mL, an MIC [10] of 50 µg/mL (≈ 73.7 µM) and an MIC (ESCHERICHIA COLI DC-2) of 12.5 µg/mL (≈ 18.4 µM). For the same molecule, the MIC [11] was 0.39 µg/mL (≈ 0.574 µM), the MIC [12] was greater than 100 µg/mL and the MIC [13] was 0.78 µg/mL (≈ 1.15 µM). The MIC (ESCHERICHIA COLI KNK 437) was 25 µg/mL (≈ 36.8 µM), the MIC [14] was 3.1 µg/mL (≈ 4.57 µM) and the MIC [15] was 0.78 µg/mL (≈ 1.15 µM). For the same molecule, the MIC (ESCHERICHIA COLI SS) was 0.2 µg/mL (≈ 0.295 µM), the MIC [16] was greater than 100 µg/mL and the MIC [17] was greater than 100 µg/mL. The MIC (PSEUDOMONAS CEPACIA 296I) was greater than 100 µg/mL, the MIC [18] was 0.39 µg/mL (≈ 0.574 µM) and the MIC (ESCHERICHIA COLI JUHL) was 25 µg/mL (≈ 36.8 µM). For the same molecule, the MIC (STR[…] 508) was 0.1 µg/mL (≈ 0.147 µM), the MIC (M[…] ATCC 4698) was 0.2 µg/mL (≈ 0.295 µM) and the MIC (M[…] ATCC 9341) was 0.05 µg/mL (≈ 0.0737 µM). The MIC (EN[…] ATCC 8043) was 0.1 µg/mL (≈ 0.147 µM), the MIC [19] was 25 µg/mL (≈ 36.8 µM) and the MIC [20] was 0.39 µg/mL (≈ 0.574 µM). For the same molecule, the MIC (CANDIDA ALBICANS CCH 442) was greater than 100 µg/mL, the MIC [21] was greater than 100 µg/mL and the MIC [22] was greater than 100 µg/mL.
